# Where two headings read alike, the source gives them in different places.
# How the values were obtained:
# acute seizure models = experiment: Fluorothyl acute seizure model; format: in vivo; settings: 30% triheptanoin (Willis and Borges in preparation)
# [1] = Urine organic acids (GC-MS); format: in vivo, mice; settings: 24 h urine; levels well below those of propionic acidemia patients
# CF1 mice [2] = experiment: PTZ (i.v.) seizure threshold, second hit model in chronic stage of pilocarpine SE model; format: in vivo; design: key to Efficacy in PTZ in PILO-SE rodents (chronic): +: Efficacy in mouse seizure models is indicated as plus; −: minus; some (+/−)
# Description: The pilocarpine CF1 mouse model used in this study was slightly modified from our previous description (Borges et al., 2003, Borges et al., 2004, Borges et al., 2006, Borges et al., 2008). 26-43 g CF1 mice were injected with methylatropine (2 mg/kg i.p. in 0.9% NaCl) to minimize peripheral side effects followed after 15-30 min by different doses of pilocarpine for CF1 mice (270-360 mg/kg, s.c.). About fifty percent of injected mice experienced behavioral status epilepticus (SE) lasting about four hours as defined by continuous seizure activity consisting mainly of whole body continuous clonic seizures. 4.5 h after pilocarpine injection, all mice were injected with pentobarbital (22.5 mg/kg, i.p.) followed by 1 ml 5% dextrose in lactate Ringer's solution (i.p.). After SE, mice were monitored daily, hand-fed moistened cookies and injected with 5% dextrose in lactate Ringer's solution twice a day for about three days and thereafter when needed. Spontaneous and handling-induced seizures, including stage 3-5 seizures, jumping and wild running, were noted. […] “Sham control” mice received methylatropine and pentobarbital, but saline instead of pilocarpine. Out of a total of 205 mice injected with pilocarpine, the inventors obtained 44% SE, 41% no SE mice, while 14% of mice died. In the chronic stage of the pilocarpine model, the seizure thresholds for the first generalized clonic and tonic seizures induced by pentylenetetrazole (PTZ, i.v.) as a measure for seizure susceptibility of SE, no SE and control mice were assessed. As previously described ([…] et al., 2008, Willis et al., 2009), 10 mg/ml PTZ dissolved in saline was infused into the tail vein at 150 μl/min. The latencies to the first generalized myoclonic seizure and tonic extension were determined and converted to seizure thresholds expressed as mg/kg body weight. Mice were euthanized by cervical dislocation immediately after the tonic extension seizure.
# CF1 mice [3] = experiment: Corneal kindling; format: in vivo; design: key to Delay in corneal kindling (chronic): +: Efficacy in mouse seizure models is indicated as plus; −: minus; some (+/−)
# Description: The corneal kindling model was slightly modified from the original protocol ([…] and […], 1998) with kindling twice a day with at least 4 h intervals. A topical anesthetic (0.5% tetracaine hydrochloride ophthalmic solution) was applied to the corneas 10-15 min before stimulation. After wetting the electrodes with 0.9% NaCl immediately before testing, 9 mA 0.4 ms duration pulses at 50 Hz were applied to the corneas for 3 seconds by a constant-current device (ECT Unit 57800, Ugo Basile). Mice were manually held during stimulation and then released for behavioral observation. Seizures were scored according to a modified Racine scale (Racine, 1972) as described by […] and […] (1998) with 0=no reaction or immobility; 1=jaw clonus; 2=myoclonic twitches in the forelimbs, sometimes with head nodding; 3=clonic convulsions in the forelimbs; 4=clonic convulsions in the forelimbs with rearing and falling; 5=loss of balance. […] Both groups had the same average seizure scores for the full kindling period and the last three days of kindling. During the five following weeks, mice were rekindled every week twice a day on two consecutive days and the scores were averaged.
# [4] = Plasma β-hydroxybutyrate and glucose in pilocarpine model; format: in vivo, CF1 mice; settings: no significant changes; range over the SE/no SE and diet groups
# Text: (§1) Both groups of mice received standard diet during the phase of epileptogenesis, the first two weeks after SE. They were then divided into two groups of equal average weight and received either standard or 35% triheptanoin-containing diet for three weeks. To avoid metabolite changes induced by anesthesia, mice were killed by cervical dislocation and then decapitated. Within 22-32 seconds brains without cerebellum were frozen in liquid nitrogen. Trunk blood was collected in heparinized tubes for analysis of β-hydroxybutyrate and glucose using kits from Pointe Scientific and […], respectively. Brains were stored at -80 C and shipped to the Metabolic Mouse Phenotyping Center at Case Western University for chromatography mass spectrometry (GC-MS/LC-MS) analysis and characterization of intermediates and products of the CAC and acyl-CoA's.
# [5] = Description: All mice were housed under a 12 h light dark cycle with free access to food and water. […] Adult male CD1 mice (20-35 g, Australian Institute for Bioengineering and Nanotechnology, Australia) were fed similar diet, prepared by Western Specialty Feed (West Australia). […] Diets were mixed fresh every 3-4 days in the laboratory, dried and then supplied to the mice. Mice were initially weighed daily to ensure adequate nutrition.
# After 4 days habituation, food intake and body weight were determined daily and then averaged per day for each mouse. 24 h urine samples were taken and organic acids isolated by liquid partition chromatography and trimethylsilyl derivatives quantified by gas chromatography mass spectrometry (Sweetman, 1991). In a separate study mice were fed respective diets for 3 weeks and were decapitated after isoflurane anaesthesia between 1-4 pm. Trunk blood was collected on absorbent filter paper for measurement of acyl-carnitine levels in dried blood spots using tandem mass spectrometry modified from the method of Rashed et al. (Rashed et al., 1997).
# [6] = Brain metabolite analysis in chronic stage of pilocarpine model (GC-MS/LC-MS); format: in vivo, CF1 mice; settings: for brain BHB (β-hydroxybutyrate) / brain Fumarate (%) / brain GABA / brain aspartate (%) / brain citrate / brain glutamate / brain glutamine / brain malate (%) / brain succinate: 35% triheptanoin for three weeks
# Text: as §1
# mouse seizure models [7] = experiment: PTZ (acute) seizure model; format: in vivo; design: key to Efficacy in PTZ (acute): +: Efficacy in mouse seizure models is indicated as plus; −: minus; some (+/−)
# mouse seizure models [8] = experiment: 6 Hz (acute) seizure model; format: in vivo; design: key to Efficacy in 6 Hz (acute): +: Efficacy in mouse seizure models is indicated as plus; −: minus; some (+/−)
# CD1 mice = experiment: Maximal electroshock threshold test (MEST); format: in vivo; design: key to Efficacy in MEST (acute): +: Efficacy in mouse seizure models is indicated as plus; −: minus; some (+/−)
# Description: 0.5% Tetracaine (Sigma Aldrich) in 0.9% NaCl solution was applied to corneas 30 minutes prior to stimulation. Saline solution was also applied to corneas and electrodes immediately prior to stimulation to ensure solid conduction. Mice were administered corneal electroshocks, which were generated using a Hugo Sachs Type 211 rodent shocker (Harvard Apparatus, Germany). Stimulation parameters of 50-60 Hz sine wave frequency, 0.2 second shock duration starting at an 11 mA current were used (Giardina and Gasior, 2009). Immediately following shock administration mouse seizure behaviour was observed. Severe clonic convulsions followed by tonic extension of both forelimbs were classified as seizures. 1 mA increments were used to determine the seizure threshold CC50 value using the up down method (Kimball et al., 1957). All mice were terminated via cervical dislocation immediately following seizure observational time.
# mouse seizure models [9] = test system: mouse seizure models; design: key: +: Efficacy in mouse seizure models is indicated as plus; −: minus; some (+/−); settings: literature; cited from earlier work
# mouse seizure models [10] = test system: mouse seizure models; design: key: +: Efficacy in mouse seizure models is indicated as plus; −: minus; some (+/−); settings: literature; cited from earlier work; remark: listed apart in the source
# mouse seizure models [11] = test system: mouse seizure models; design: key: +: Efficacy in mouse seizure models is indicated as plus; −: minus; some (+/−); settings: literature; the PTZ model was performed in rats for PHB, PHT and VPA; cited from earlier work
# mouse seizure models [12] = test system: mouse seizure models; design: key: +: Efficacy in mouse seizure models is indicated as plus; −: minus; some (+/−); settings: literature; cited from earlier work; remark: listed apart in the source
# Wistar rats = test system: Wistar rats; design: key to Efficacy in PTZ in PILO-SE rodents (chronic): +: Efficacy in mouse seizure models is indicated as plus; −: minus; some (+/−); settings: cited from earlier work; for sensitivity of PTZ-induced seizures to drug: one month after pilocarpine, subcutaneous PTZ
# [13] = chronically epileptic SE mice, not in no SE mice
# [14] = 30% triheptanoin (Willis and Borges in preparation)
structure (smiles),measurement,setting,value
"CCCCCCC(=O)OCC(COC(=O)CCCCCC)OC(=O)CCCCCC [Triheptanoin, 1,3-di(heptanoyloxy)propan-2-yl heptanoate]",anticonvulsant effect in acute fluorothyl model,acute seizure models,No consistent anticovulsant effect
same,"urine markers for propionic acidemia (methylmalonate, methylcitrate)",[1],some increases
same,PTZ clonic seizure thresholds,"CF1 mice [2]; SE or no SE mice, diet for three weeks after pilocarpine",no effect
same,reversal of increased susceptibility to PTZ tonic extension in SE mice,"CF1 mice [2]; diet initiated immediately after pilocarpine injection, three weeks, p<0.05",about 40%
same,Efficacy in PTZ in PILO-SE rodents (chronic),CF1 mice [2]; mice,+
same,reversal of susceptibility to PTZ tonic extension in no SE mice,"CF1 mice [2]; no SE mice, three weeks after pilocarpine injection",but not in no SE mice
same,counteraction of 30% increased susceptibility to tonic extension seizure in SE mice,"CF1 mice [2]; three week feeding initiated two weeks after pilocarpine injection, p<0.05",about 50%
same,development of corneally kindled seizures,"CF1 mice [3]; 35% triheptanoin feeding from three weeks prior to and throughout kindling, CF1 mice",delayed the development of kindled seizures
same,Delay in corneal kindling (chronic),CF1 mice [3]; mouse,+
same,plasma levels of glucose,[4],174 to 228 mg/dL
same,plasma levels of β-hydroxybutyrate,[4],0.17 to 0.28 mM
same,body weights,"[5]; 35% triheptanoin diet vs standard chow, up to 52 days, CF1 mice",statistically indistinguishable
same,tolerability,"[5]; mouse, in vivo",well tolerated
same,brain β-hydroxybutyrate levels,"[6]; 35% triheptanoin diet, both SE and no SE brains",doubled
same,brain BHB (β-hydroxybutyrate),[6]; No SE mice,108.9 ± 9.6 μmol/g wet weight
same,brain Fumarate (%),[6]; No SE mice,82.8 ± 3.8 % of control
same,brain GABA,[6]; No SE mice,2.36 ± 0.13 μmol/g wet weight
same,brain aspartate (%),[6]; No SE mice,104.0 ± 7.0 % of control
same,brain citrate,[6]; No SE mice,0.21 ± 0.01 μmol/g wet weight
same,brain glutamate,[6]; No SE mice,21.59 ± 0.92 μmol/g wet weight
same,brain glutamine,[6]; No SE mice,12.91 ± 0.49 μmol/g wet weight
same,brain malate (%),[6]; No SE mice,125.5 ± 7.7 % of control
same,brain succinate,[6]; No SE mice,0.11 ± 0.01 μmol/g wet weight
same,brain BHB (β-hydroxybutyrate),[6]; SE mice,127.4 ± 15.7 μmol/g wet weight
same,brain Fumarate (%),[6]; SE mice,81.4 ± 2.9 % of control
same,brain GABA,[6]; SE mice,2.16 ± 0.05 μmol/g wet weight
same,brain aspartate (%),[6]; SE mice,76.6 ± 4.1 % of control
same,brain citrate,[6]; SE mice,0.2 ± 0.01 μmol/g wet weight
same,brain glutamate,[6]; SE mice,22.01 ± 1.65 μmol/g wet weight
same,brain glutamine,[6]; SE mice,13.15 ± 0.48 μmol/g wet weight
same,brain malate (%),[6]; SE mice,80.1 ± 3.9 % of control
same,brain succinate,[6]; SE mice,0.10 ± 0.01 μmol/g wet weight
same,brain propionyl-CoA levels,"[6]; SE mice, triheptanoin feeding, p<0.001",restored
same,steady state brain level of succinyl-CoA,[6]; by SE or diet,No significant changes
same,increase of brain HMG-CoA levels,[6]; [13],1.8 fold
same,increase of brain methylmalonyl-CoA levels,[6]; [13],1.4 fold
same,decrease of brain fumarate levels,"[6]; no SE mice, p<0.05",17%
same,increase of brain malate levels,"[6]; no SE mice, p<0.05",26%
same,anticonvulsant effect in acute PTZ (i.v.) model,mouse seizure models [7]; [14],No consistent anticovulsant effect
same,Efficacy in PTZ (acute),mouse seizure models [7]; mouse,−
same,anticonvulsant effect in acute 6 Hz model,mouse seizure models [8]; [14],No consistent anticovulsant effect
same,Efficacy in 6 Hz (acute),mouse seizure models [8]; mouse,−
same,"MEST (critical current at which 50% of mice seize, CC50)","CD1 mice; 35% of daily caloric intake as triheptanoin oil, after 3.5 and six weeks, CD1 mice, p=0.018 and p<0.0011",reproducible increase
same,Efficacy in MEST (acute),CD1 mice; mouse,+
"NC(=O)N1c2ccccc2C=Cc2ccccc21 [CBZ, carbamazepine]",Efficacy in MEST (acute),mouse seizure models [9],+
same,Efficacy in 6 Hz (acute),mouse seizure models [10],+/−
same,Efficacy in PTZ (acute),mouse seizure models [11],−
"CC[C@@H](C(N)=O)N1CCCC1=O [LEV, levetiracetam]",Efficacy in MEST (acute),mouse seizure models [9],−
same,Efficacy in 6 Hz (acute),mouse seizure models [10],+
same,Delay in corneal kindling (chronic),mouse seizure models [12],+
same,Efficacy in PTZ (acute),mouse seizure models [11],−
"O=C1NC(=O)C(c2ccccc2)(c2ccccc2)N1 [PHT, phenyloin]",Efficacy in MEST (acute),mouse seizure models [9],+
same,Efficacy in 6 Hz (acute),mouse seizure models [10],+
same,sensitivity of PTZ-induced seizures to drug,Wistar rats; SE Wistar rats,not in SE rats
same,Efficacy in PTZ in PILO-SE rodents (chronic),"Wistar rats; literature, PTZ model performed in rats for PHB, PHT and VPA",−
same,sensitivity of PTZ-induced seizures to drug,Wistar rats; no SE Wistar rats,sensitive
same,Efficacy in PTZ (acute),mouse seizure models [11],−
